Reference: ChEMBL document CHEMBL3596129, “Osthol and curcumin as inhibitors of human Pgp and multidrug efflux pumps of Staphylococcus aureus: reversing the resistance against frontline antibacterial drugs” (Medchemcomm, 2014)

Columns and labels:
[1] = target: T1, Quinolone resistance protein NorA (Staphylococcus aureus) (UniProt P0A0J7); assay: Inhibition of NorA overexpressed in Staphylococcus aureus SA1199B assessed as ciprofloxacin MIC at 3.12 uM after 24 hrs by broth checkerboard method (reference value: 8 ug/ml)
T1 sequence (whole entry): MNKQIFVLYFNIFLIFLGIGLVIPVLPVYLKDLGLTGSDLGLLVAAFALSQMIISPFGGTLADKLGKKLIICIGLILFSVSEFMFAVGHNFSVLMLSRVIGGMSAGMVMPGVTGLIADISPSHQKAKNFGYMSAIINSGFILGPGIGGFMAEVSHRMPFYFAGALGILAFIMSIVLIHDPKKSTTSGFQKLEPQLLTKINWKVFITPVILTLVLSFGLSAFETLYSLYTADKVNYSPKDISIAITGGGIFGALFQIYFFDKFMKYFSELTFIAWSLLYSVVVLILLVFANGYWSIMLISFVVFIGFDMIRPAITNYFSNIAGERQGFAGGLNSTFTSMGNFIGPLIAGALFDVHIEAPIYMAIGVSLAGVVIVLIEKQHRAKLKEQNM

[2] = target: T2, Fluoroquinolone resistance protein (Staphylococcus aureus) (UniProt A0A0C5K5S3); assay: Inhibition of MdeA overexpressed in Staphylococcus aureus Mupr-1 assessed as mupirocin MIC at 3.12 uM after 24 hrs by broth checkerboard method (reference value: 256 ug/ml)
T2 sequence (whole entry): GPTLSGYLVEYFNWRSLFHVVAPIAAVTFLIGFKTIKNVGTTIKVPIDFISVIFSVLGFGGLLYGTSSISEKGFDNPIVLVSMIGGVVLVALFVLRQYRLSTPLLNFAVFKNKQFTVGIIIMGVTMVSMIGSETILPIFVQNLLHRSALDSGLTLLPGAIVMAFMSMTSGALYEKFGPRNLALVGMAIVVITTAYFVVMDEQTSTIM

[3] = target: T1, Quinolone resistance protein NorA (Staphylococcus aureus); assay: Inhibition of NorA overexpressed in Staphylococcus aureus SA1199B assessed as decrease in ciprofloxacin MIC at 3.12 uM after 24 hrs by broth checkerboard method relative to control
Staphylococcus aureus [4] = assay: Inhibition of MsrA overexpressed in Staphylococcus aureus K2191 assessed as decrease in erythromycin MIC at 3.12 uM after 24 hrs by broth checkerboard method relative to control
[5] = target: T3, ATP-dependent translocase ABCB1 (Homo sapiens, UniProt P08183); assay: Inhibition of P-gp in human LS180 cells at 50 uM after 90 mins by rhodamine123 cell exclusion method; format: cell-based; details: ls180, 1.5 h
[6] = target: T2, Fluoroquinolone resistance protein (Staphylococcus aureus); assay: Inhibition of MdeA overexpressed in Staphylococcus aureus Mupr-1 assessed as decrease in mupirocin MIC at 3.12 uM after 24 hrs by broth checkerboard method relative to control
Staphylococcus aureus [7] = assay: Inhibition of MsrA overexpressed in Staphylococcus aureus K2191 assessed as erythromycin MIC at 3.12 uM after 24 hrs by broth checkerboard method (reference value: 64 ug/ml)
Staphylococcus aureus [8] = assay: Inhibition of TetK overexpressed in Staphylococcus aureus K2192 assessed as tetracycline MIC at 3.12 uM after 24 hrs by broth checkerboard method (reference value: 32 ug/ml)
Staphylococcus aureus [9] = assay: Inhibition of TetK overexpressed in Staphylococcus aureus K2192 assessed as decrease in tetracycline MIC at 3.12 uM after 24 hrs by broth checkerboard method relative to control
[10] = target: T1, Quinolone resistance protein NorA (Staphylococcus aureus); assay: Inhibition of NorA overexpressed in Staphylococcus aureus SA1199B assessed as decrease in ciprofloxacin MIC at 25 uM after 24 hrs by broth checkerboard method relative to control
CYP3A4 = CYP3A4 (Homo sapiens, UniProt P08684); assay: Inhibition of human CYP3A4 at 10 uM preincubated for 10 mins with cofactor followed by mixture of enzyme-substrate addition by fluorescence assay relative to control; format: ADME
Staphylococcus aureus [11] = assay: Inhibition of MsrA overexpressed in Staphylococcus aureus K2191 assessed as decrease in erythromycin MIC at 25 uM after 24 hrs by broth checkerboard method relative to control
[12] = target: T2, Fluoroquinolone resistance protein (Staphylococcus aureus); assay: Inhibition of MdeA overexpressed in Staphylococcus aureus Mupr-1 assessed as mupirocin MIC at 25 uM after 24 hrs by broth checkerboard method (reference value: 256 ug/ml)
Staphylococcus aureus [13] = assay: Inhibition of MsrA overexpressed in Staphylococcus aureus K2191 assessed as erythromycin MIC at 25 uM after 24 hrs by broth checkerboard method (reference value: 64 ug/ml)
Staphylococcus aureus [14] = assay: Inhibition of TetK overexpressed in Staphylococcus aureus K2192 assessed as decrease in tetracycline MIC at 25 uM after 24 hrs by broth checkerboard method relative to control
P-gp [15] = assay: Substrate activity at P-gp in human Caco2 cells assessed as apparent permeability across basolateral to apical side at 10 uM after 90 mins by HPLC with mass spectrometric method; format: ADME, cell-based; details: Caco-2
[16] = target: T3, ATP-dependent translocase ABCB1; assay: Inhibition of P-gp in human LS180 cells after 90 mins by rhodamine123 cell exclusion method; format: cell-based
P-gp [17] = assay: Substrate activity at P-gp in human Caco2 cells assessed as efflux ratio of apparent permeability across basolateral to apical side over apical to basolateral side at 10 uM after 90 mins by HPLC with mass spectrometric method; format: ADME, cell-based; details: Caco-2
CYP2D6 = CYP2D6 (Homo sapiens, UniProt P10635); assay: Inhibition of human CYP2D6 at 10 uM preincubated for 10 mins with cofactor followed by mixture of enzyme-substrate addition by fluorescence assay relative to control; format: ADME
CYP2C19 = CYP2C19 (Homo sapiens, UniProt P33261); assay: Inhibition of human CYP2C19 at 10 uM preincubated for 10 mins with cofactor followed by mixture of enzyme-substrate addition by fluorescence assay relative to control; format: ADME
CYP2C9 = CYP2C9 (Homo sapiens, UniProt P11712); assay: Inhibition of human CYP2C9 at 10 uM preincubated for 10 mins with cofactor followed by mixture of enzyme-substrate addition by fluorescence assay relative to control; format: ADME
P-gp [18] = assay: Substrate activity at P-gp in human Caco2 cells assessed as apparent permeability across apical to basolateral side at 10 uM after 90 mins by HPLC with mass spectrometric method; format: ADME, cell-based; details: Caco-2
[19] = target: T2, Fluoroquinolone resistance protein (Staphylococcus aureus); assay: Inhibition of MdeA overexpressed in Staphylococcus aureus Mupr-1 assessed as decrease in mupirocin MIC at 25 uM after 24 hrs by broth checkerboard method relative to control
[20] = target: T1, Quinolone resistance protein NorA (Staphylococcus aureus); assay: Inhibition of NorA overexpressed in Staphylococcus aureus SA1199B assessed as ciprofloxacin MIC at 25 uM after 24 hrs by broth checkerboard method (reference value: 8 ug/ml)
Staphylococcus aureus [21] = assay: Inhibition of TetK overexpressed in Staphylococcus aureus K2192 assessed as tetracycline MIC at 25 uM after 24 hrs by broth checkerboard method (reference value: 32 ug/ml)

CYP3A4, sequence (P08684 whole entry): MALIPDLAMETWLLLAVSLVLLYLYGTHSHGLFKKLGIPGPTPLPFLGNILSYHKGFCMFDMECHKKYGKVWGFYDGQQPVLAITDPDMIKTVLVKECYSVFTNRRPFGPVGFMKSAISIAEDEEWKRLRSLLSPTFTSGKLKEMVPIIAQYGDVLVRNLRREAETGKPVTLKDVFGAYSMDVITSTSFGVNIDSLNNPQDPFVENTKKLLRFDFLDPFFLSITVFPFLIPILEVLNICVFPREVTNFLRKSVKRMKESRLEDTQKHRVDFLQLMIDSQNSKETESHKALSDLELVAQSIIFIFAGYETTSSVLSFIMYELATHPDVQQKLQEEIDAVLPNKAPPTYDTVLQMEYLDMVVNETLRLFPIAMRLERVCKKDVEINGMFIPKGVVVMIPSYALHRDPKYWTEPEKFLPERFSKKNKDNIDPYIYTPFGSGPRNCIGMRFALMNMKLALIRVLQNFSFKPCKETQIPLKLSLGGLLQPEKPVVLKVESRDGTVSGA
CYP2C9, sequence (P11712 whole entry): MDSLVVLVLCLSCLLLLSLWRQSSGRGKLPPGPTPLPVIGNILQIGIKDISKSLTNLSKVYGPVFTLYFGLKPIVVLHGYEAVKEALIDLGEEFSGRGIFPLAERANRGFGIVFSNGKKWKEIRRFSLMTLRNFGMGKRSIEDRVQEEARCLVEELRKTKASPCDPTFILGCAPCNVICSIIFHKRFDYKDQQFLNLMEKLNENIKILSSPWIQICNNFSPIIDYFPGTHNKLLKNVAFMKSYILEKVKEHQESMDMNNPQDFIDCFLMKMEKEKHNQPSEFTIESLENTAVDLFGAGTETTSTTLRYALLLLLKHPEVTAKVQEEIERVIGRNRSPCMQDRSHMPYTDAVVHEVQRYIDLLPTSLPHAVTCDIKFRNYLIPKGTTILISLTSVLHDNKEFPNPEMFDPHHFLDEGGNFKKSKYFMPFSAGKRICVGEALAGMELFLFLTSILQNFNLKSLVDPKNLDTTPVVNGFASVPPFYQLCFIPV
CYP2C19, sequence (P33261 whole entry): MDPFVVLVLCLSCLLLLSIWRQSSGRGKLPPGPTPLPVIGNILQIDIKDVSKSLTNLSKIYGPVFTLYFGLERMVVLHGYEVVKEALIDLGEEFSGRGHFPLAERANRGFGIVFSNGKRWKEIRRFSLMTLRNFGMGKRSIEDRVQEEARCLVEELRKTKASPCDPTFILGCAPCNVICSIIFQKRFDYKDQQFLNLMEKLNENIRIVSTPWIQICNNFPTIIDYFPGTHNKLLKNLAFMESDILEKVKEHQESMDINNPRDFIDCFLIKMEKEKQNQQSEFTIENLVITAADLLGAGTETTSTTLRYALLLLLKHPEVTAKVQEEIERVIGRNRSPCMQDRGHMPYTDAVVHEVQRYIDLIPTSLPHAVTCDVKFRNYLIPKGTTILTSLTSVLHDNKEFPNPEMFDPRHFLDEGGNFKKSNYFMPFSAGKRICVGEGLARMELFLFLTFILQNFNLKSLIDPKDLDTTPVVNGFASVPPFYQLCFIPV
CYP2D6, sequence (P10635 whole entry): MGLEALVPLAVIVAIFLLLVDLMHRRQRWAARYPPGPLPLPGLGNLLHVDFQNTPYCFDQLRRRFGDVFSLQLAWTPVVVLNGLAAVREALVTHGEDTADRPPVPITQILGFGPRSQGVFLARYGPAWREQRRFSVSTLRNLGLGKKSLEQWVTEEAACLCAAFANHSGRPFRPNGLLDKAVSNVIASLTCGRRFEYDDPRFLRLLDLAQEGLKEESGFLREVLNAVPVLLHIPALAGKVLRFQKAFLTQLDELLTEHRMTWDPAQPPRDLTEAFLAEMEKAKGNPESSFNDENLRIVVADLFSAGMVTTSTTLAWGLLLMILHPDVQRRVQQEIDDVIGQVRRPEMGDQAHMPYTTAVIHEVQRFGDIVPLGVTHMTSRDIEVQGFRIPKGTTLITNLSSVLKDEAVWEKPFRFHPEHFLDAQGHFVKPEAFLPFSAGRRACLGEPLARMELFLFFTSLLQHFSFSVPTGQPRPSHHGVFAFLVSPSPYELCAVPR

In the case of `CC(=O)c1c(O)c(C)c(O)c(Cc2c3c(c(O)c4c2OC(c2ccccc2)CC4=O)C=CC(C)(C)O3)c1O` (stereo unspecified), the MIC [1] is reported as 2 µg/mL, the MIC [2] is reported as 256 µg/mL and the fold change (FC) [3] is reported as 4. The fold change (FC) (Staphylococcus aureus [4]) was 0, the “inhibition (INH)” value [5] was “Not Active” and the fold change (FC) [6] was 0. The MIC (Staphylococcus aureus [7]) was 64 µg/mL, the MIC (Staphylococcus aureus [8]) was 32 µg/mL and the fold change (FC) (Staphylococcus aureus [9]) was 0.
`COc1ccc2ccc(=O)oc2c1CC=C(C)C` [OSTHOLE] gave a fold change (FC) [10] of 4, an inhibition at 10 µM (CYP3A4) of 27.3% and a fold change (FC) (Staphylococcus aureus [11]) of 0. For the same molecule, the MIC [12] was 256 µg/mL, the MIC (Staphylococcus aureus [13]) was 64 µg/mL and the fold change (FC) (Staphylococcus aureus [14]) was 2. The Papp B→A at 1.5 h, 10 µM (P-gp [15]) was 35 ×10⁻⁶ cm/s, the IC50 [16] was 34 µM and the efflux ratio at 1.5 h, 10 µM (P-gp [17]) was 1.3. It also gave an inhibition at 10 µM (CYP2D6) of 60.5%, an inhibition at 10 µM (CYP2C19) of 56.5% and an inhibition at 10 µM (CYP2C9) of 39.8%. The Papp A→B at 1.5 h, 10 µM (P-gp [18]) was 26 ×10⁻⁶ cm/s, the “inhibition (INH)” value [5] was “Not Active” and the fold change (FC) [19] was 0. It also gave an MIC [20] of 2 µg/mL and an MIC (Staphylococcus aureus [21]) of 16 µg/mL.
